The target of this test is T1, recombinant 15-PGDH (Homo sapiens, UniProt P15428).
T1 sequence (P15428 1-266): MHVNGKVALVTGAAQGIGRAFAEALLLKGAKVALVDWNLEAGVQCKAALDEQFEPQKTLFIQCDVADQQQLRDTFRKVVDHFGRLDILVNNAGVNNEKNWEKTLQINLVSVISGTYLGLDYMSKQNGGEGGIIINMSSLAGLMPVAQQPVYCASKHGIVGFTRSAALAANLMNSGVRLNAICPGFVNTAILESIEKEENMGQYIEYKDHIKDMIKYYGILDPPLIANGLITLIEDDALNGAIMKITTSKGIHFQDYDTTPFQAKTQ
The format is biochemical. The conditions noted are these: recombinant human 15-PGDH, in vitro; read-out: PDGH Assay-IC50.

Where only a bound is given, the exact number is not on record here.

Excerpt: The Recombinant 15-PGDH is human unless otherwise specified.

With `COCC[S@@+]([O-])c1sc2nc(-c3cnc4ncn(C)c4c3)cc(C3CC3)c2c1N` [Example 405], the IC50 was less than 2.5 nM.
To `CN(C)c1cc(-c2cc(-c3cnc(N)nc3)nc3sc([S@+]([O-])C4CCC4)c(N)c23)n(C)n1` [Example 415] belongs less than 2.5 nM.
Under `COCC[S@@+]([O-])c1sc2nc(-c3cnc4nn(C)cc4c3)cc(C(F)(F)F)c2c1N` [Example 418] stands less than 2.5 nM.
To `Cn1nccc1-c1cc(-c2cnc(O)nc2)nc2sc([S+]([O-])C3CCC3)c(N)c12` (centres unmarked) [Example 223] belongs less than 2.5 nM; to `COCC[S@@+]([O-])c1sc2nc(-c3cnc4c(c3)ncn4C)cc(C3CCC3)c2c1N` [Example 374], less than 2.5 nM; to `Cn1ccc(-c2cc(-c3cnc4nn(C)cc4c3)nc3sc([S+]([O-])C4CCC4)c(N)c23)n1` (centres unmarked) [Example 341], less than 2.5 nM.
On to `Nc1c([S+]([O-])C2CCC2)sc2nc(-c3cnc(NCCO)nc3)cc(-c3ccc(C(F)(F)F)cc3)c12` (centres unmarked) [Example 160], for which the IC50 lay in the range of 2.5 to 10 nM.
To `COCCC[S@+]([O-])c1sc2nc(-c3cncnc3)cc(-c3ccncn3)c2c1N` [Example 239] belongs not below 10 nM; to `COCC[S@@+]([O-])c1sc2nc(-c3cnc(N)nc3)cc(C(F)(F)F)c2c1N` [Example 202], less than 2.5 nM.
To `COCC[S@@+]([O-])c1sc2nc(-c3cccnc3)nc(-c3ccccc3)c2c1N` [Example 55] belongs less than 2.5 nM; to `Nc1c([S@@+]([O-])C2CCC2)sc2nc(-c3cnc(NCCO)nc3)cc(-c3ccccc3)c12` [Example 52], not below 10 nM.
Under `Nc1c([S@+]([O-])C2CCC2)sc2nc(-c3ccc(NCCO)nc3)cc(-c3ccccn3)c12` [Example 97] stands less than 2.5 nM; under `COCC[S@@+]([O-])c1sc2nc(-c3cnc4nn(C)cc4c3)nc(-c3ccccc3)c2c1N` [Example 433], less than 2.5 nM.
On to `CN1CCN(c2ncc(-c3cc(-c4ccccc4)c4c(N)c([S@@+]([O-])C5CCC5)sc4n3)cn2)CC1` [Example 49], for which the IC50 was not below 10 nM.
To `COCC[S+]([O-])c1sc2nc(-c3cnc4ncn(C)c4c3)cc(-c3ccccc3)c2c1N` (centres unmarked) [Example 364] belongs less than 2.5 nM; to `COCC[S+]([O-])c1sc2nc(-c3cnc(N)nc3)cc(-c3cnn(C)c3)c2c1N` (centres unmarked) [Example 196], less than 2.5 nM; to `Nc1c([S+]([O-])C2CCC2)sc2nc(-c3cncnc3)cc(C34CC(C3)C4)c12` (centres unmarked) [Example 257], less than 2.5 nM.
To `Nc1c([S+]([O-])C2CCC2)sc2nc(-c3cnc(NCCO)nc3)cc(-c3ccccn3)c12` (centres unmarked) [Example 92] belongs less than 2.5 nM; to `COCC[S+]([O-])c1sc2nc(-c3cn[nH]c(=O)c3)cc(-c3ccccc3)c2c1N` (centres unmarked) [Example 394], less than 2.5 nM; to `Nc1ncc(-c2cc(-c3cncc(F)c3)c3c(N)c([S+]([O-])C4CCC4)sc3n2)cn1` (centres unmarked) [Example 67], less than 2.5 nM.
Take `COCC[S+]([O-])c1sc2nc(-c3cnc4c(c3)ncn4C)cc(C3CCC3)c2c1N` (centres unmarked) [Example 373]: the IC50 was less than 2.5 nM.
To `COCC[S+]([O-])c1sc2nc(-c3cnc(N)nc3)nc(-c3ccccc3)c2c1N` (centres unmarked) [Example 430] belongs less than 2.5 nM; to `COCC[S@@+]([O-])c1sc2nc(-c3cnn(C)c3)cc(C3CC3)c2c1N` [Example 275], less than 2.5 nM.
Under `COCCC[S@+]([O-])c1sc2nc(-c3cnc4nn(C)cc4c3)cc(C3CCC3)c2c1N` [Example 262] stands not below 10 nM.
Under `COCC[S+]([O-])c1sc2nc(-c3cnn(CCO)c3)cc(-c3ccccc3)c2c1N` (centres unmarked) [Example 271] stands less than 2.5 nM; under `COCCC[S+]([O-])c1sc2nc(-c3cnn(CCO)c3)cc(-c3ccccc3)c2c1N` (centres unmarked) [Example 273], less than 2.5 nM; under `Nc1c([S+]([O-])C2CCC2)sc2nc(-c3cnc4ncnn4c3)cc(-c3ccccc3)c12` (centres unmarked) [Example 401], less than 2.5 nM.
With `Nc1c([S+]([O-])C2CCC2)sc2nc(-c3cnc4c(c3)CNC4=O)cc(-c3ncccn3)c12` (centres unmarked) [Example 304], the IC50 was 2.5 to 10 nM.
To `CNc1ncc(-c2cc(-c3ccn(C)n3)c3c(N)c([S+]([O-])CCOC)sc3n2)cn1` (centres unmarked) [Example 339] belongs less than 2.5 nM; to `COCC[S+]([O-])c1sc2nc(-c3cnc(NCCO)nc3)nc(-c3ccccc3)c2c1N` (centres unmarked) [Example 432], 2.5 to 10 nM.
Under `COCC[S+]([O-])c1sc2nc(-c3cnc4nn(CCO)cc4c3)cc(-c3ccccc3)c2c1N` (centres unmarked) [Example 263] stands less than 2.5 nM; under `Cc1cc(-c2cc(-c3cncnc3)nc3sc([S+]([O-])C4CCC4)c(N)c23)ccn1` (centres unmarked) [Example 154], less than 2.5 nM.
As to `Nc1c([S+]([O-])C2CCC2)sc2nc(-c3cncnc3)cc(C(F)(F)F)c12` (centres unmarked) [Example 204], the IC50 is less than 2.5 nM.
To `Nc1c([S+]([O-])C2CCC2)sc2nc(-c3cnc(NCC(=O)O)nc3)cc(-c3ccccc3)c12` (centres unmarked) [Example 155] belongs less than 2.5 nM; to `CN(CCO)c1ncc(-c2cc(-c3ccccc3)c3c(N)c([S@@+]([O-])C4CCC4)sc3n2)cn1` [Example 180], not below 10 nM; to `COCC[S+]([O-])c1sc2nc(-c3ccc(NC(=O)OC)nc3)cc(-c3cccnc3)c2c1N` (centres unmarked) [Example 390], 2.5 to 10 nM.
Under `COCC[S@@+]([O-])c1sc2nc(-c3cnc4ncn(C)c4c3)cc(C3CCC3)c2c1N` [Example 366] stands less than 2.5 nM; under `Nc1c([S+]([O-])C2CCC2)sc2nc(-c3cncnc3)cc(-c3cnccn3)c12` (centres unmarked) [Example 289], less than 2.5 nM.
For `COCC[S+]([O-])c1sc2nc(-c3cnc4nn(C)cc4c3)cc(C(F)(F)F)c2c1NC(C)=O` (centres unmarked) [Example 208], the IC50 was not below 10 nM.
Under `COCCNc1ncc(-c2cc(-c3ncccn3)c3c(N)c([S+]([O-])C4CCC4)sc3n2)cn1` (centres unmarked) [Example 232] stands less than 2.5 nM.
Under `COCCC[S+]([O-])c1sc2nc(-c3cnc(N)nc3)cc(C(F)(F)F)c2c1N` (centres unmarked) [Example 133] stands less than 2.5 nM; under `COCC[S@+]([O-])c1sc2nc(-c3cnc4ncn(C)c4c3)cc(C3CC3)c2c1N` [Example 406], not below 10 nM.
Under `Cn1ccc(-c2cc(-c3cnc(NCCO)nc3)nc3sc([S+]([O-])C4CCC4)c(N)c23)n1` (centres unmarked) [Example 340] stands less than 2.5 nM.
As to `COCCC[S+]([O-])c1sc2nc(-c3ccc(NCCO)nc3)cc(-c3ccc(F)cc3)c2c1N` (centres unmarked) [Example 70], the concentration for half-maximal inhibition (IC50) was in the range of 2.5 to 10 nM.
Under `Cn1nccc1-c1cc(-c2cnc3c(c2)nnn3C)nc2sc([S+]([O-])C3CCC3)c(N)c12` (centres unmarked) [Example 325] stands less than 2.5 nM; under `COCCC[S+]([O-])c1sc2nc(-c3cncnc3)cc(C3CCC3)c2c1N` (centres unmarked) [Example 254], less than 2.5 nM.
To `CS(=O)(=O)Nc1ncc(-c2cc(-c3ccccc3)c3c(N)c([S@+]([O-])C4CCC4)sc3n2)cn1` [Example 68] belongs less than 2.5 nM; to `COCC[S+]([O-])c1sc2nc(-c3cncnc3)cc(C)c2c1N` (centres unmarked) [Example 173], less than 2.5 nM.
To `COCC[S@@+]([O-])c1sc2nc(-c3cnc4nn(C)cc4c3)cc(-c3ccnn3C)c2c1N` [Example 335] belongs less than 2.5 nM; to `COCC[S+]([O-])c1sc2nc(-c3cnc4c(c3)CN(C)C4=O)cc(-c3ccccc3)c2c1N` (centres unmarked) [Example 384], less than 2.5 nM.

The record behind these values is US12336982B2 (RODEO THERAPEUTICS CORPORATION, priority 2018, dated 2025).
